ChEMBL document CHEMBL5441456, “ASAP - SARS-CoV-2 nsp3 macrodomain dose response” (2024)
Where “and” joins values, the source holds several entries; their conditions need not be identical. Equal entries are not always repeated.

Target: Replicase polyprotein 1ab (Severe acute respiratory syndrome coronavirus 2, UniProt P0DTD1)
Experiment: Functional biochemical assay to identify treatments for viral infectious disease that targets SARS-COV-2 nsp3 macrodomain, whereby the mechanism of action displaces an ADP-Ribose modified peptide from the binding site. Utilizing a time-resolved fluorescence method to measure binding by reading the emitted fluorescence intensity in two wavelengths.

SMILES | IC50
O=C(Nc1ccccc1)Nc1ccc(C(=O)NC2c3cccc(O)c3CC2C(=O)O)cc1 (stereo not given) | 1.02 µM and 1.06 µM and 650 nM and 440 nM (3×) and 535 nM and 555 nM and 628 nM and 598 nM and 632 nM (2×) and 644 nM and 653 nM (2×) and 470 nM and 462 nM and 430 nM and 474 nM and 540 nM and 599 nM and 592 nM and 435 nM and 316 nM and 338 nM and 701 nM and 439 nM and 411 nM and 374 nM (2×) and 353 nM (2×) and 447 nM and 847 nM and 925 nM and 461 nM and 794 nM and 731 nM and 432 nM and 1.1 µM and 317 nM and 406 nM and 649 nM and 516 nM and 384 nM and 402 nM and 289 nM and 506 nM and 262 nM and 224 nM
O=C(c1ccccc1)N1CCC(c2ccn3ncc(C(=O)N4CCCC[C@H](O)C4)c3c2)CC1 | > 99.5 µM
O=C(N[C@@H]1CCC[C@@H]1C(=O)O)c1cnn2ccc(C3CCN(C(=O)c4ccc(Cl)cc4)CC3)cc12 | 32.5 µM and 24.5 µM
COC(=O)c1c[nH]c(-c2cc(N[C@@H](c3ccc4c(c3)OCCO4)C(C)C)ncn2)c1 | > 99.5 µM
CC(C)[C@@H](Nc1ncnc2[nH]ccc12)c1ccc2c(c1)NC(=O)[C@@H](C)O2 | 2.69 µM and 2.9 µM
CC(C)[C@@H](Nc1ncnc2[nH]c(-c3ccnn3CC3CC3)cc12)c1ccc2c(c1)OCCO2 | 4.22 µM and 3.91 µM
O=C(NCc1ccccc1F)c1ncnc2[nH]ccc12 | > 99.5 µM
Cc1nnc(Nc2ccc(C(=O)N[C@@H]3c4cccc(O)c4C[C@H]3C(=O)O)cc2)o1 | 25.3 µM and 26 µM
Cc1occc1-c1cc2c(N[C@@H](c3ccc4c(c3)OCCO4)C(C)C)ncnc2[nH]1 | 8.54 µM and 8.99 µM and 9.51 µM
CC(C)[C@@H](Nc1ncnc2[nH]c(C(=O)Nc3cn(C)nc3O)cc12)c1ccc2c(c1)OCCO2 | 0.678 µM and 0.611 µM
c1cc(-c2nnc(Sc3ncnc4[nH]ccc34)[nH]2)ccn1 | > 124 µM
CC(C)(C)n1cc([C@H]2N(c3ncnc4[nH]ccc34)CC23CCOCC3)cn1 | > 99.5 µM
O=C(OCc1ccc(Cl)nc1)c1ncnc2[nH]ccc12 | > 99.5 µM
O=C(c1ccccc1)N1CCC(c2ccn3ncc(C(=O)N4CCc5nc[nH]c5C4)c3c2)CC1 | > 99.5 µM
O=C(c1cn2ncccc2n1)N1CCC(c2ccn3ncc(C(=O)N4CCCCC4)c3c2)CC1 | > 99.5 µM
O=C(O)C[C@@H](NC(=O)c1ccc2[nH]ccc2n1)c1ccc(Br)cc1 | 41.2 µM and 38.3 µM
COc1cc(Nc2ccc(C(=O)N[C@@H]3c4cccc(O)c4C[C@H]3C(=O)O)cc2)[nH]n1 | > 99.5 µM
CC(C)[C@@H](Oc1ncnc2[nH]ccc12)c1ccc2c(c1)OCCO2 | > 99.5 µM
O=C(Nc1ccc(C(=O)N[C@@H]2c3ccccc3C[C@@H]2C(=O)O)cc1)c1ccc2c(c1)OCCO2 | > 99.5 µM
CC(C)[C@H](Nc1ncnc2[nH]cnc12)c1ccc2c(c1)S(=O)(=O)CCC2 | 0.743 µM
CC(=O)Nc1ccc(S(=O)(=O)NNc2ncnc3sccc23)cc1 | > 99.5 µM
O=C(O)c1sccc1C(=O)N1CCC(c2ccn3ncc(C(=O)N4CCCCC4)c3c2)CC1 | 38 µM

SMILES | IC50
Cc1coc(-c2cc3c(N[C@@H](c4ccc5c(c4)OCCO5)C(C)C)ncnc3[nH]2)c1 | > 99.5 µM
Cc1ncc(-c2cc3c(N[C@@H](c4ccc5c(c4)OCCO5)C(C)C)ncnc3[nH]2)cn1 | 0.479 µM and 0.585 µM
CC(C)[C@@H](Nc1ccnc2nccn12)c1ccc2c(c1)S(=O)(=O)CCC2 | > 99.5 µM
CC(C)[C@@H](Nc1ncnc2c1OCCO2)c1ccc2c(c1)S(=O)(=O)CCC2 | > 99.5 µM
O=C(OCc1ncccc1Cl)c1ncnc2[nH]ccc12 | > 99.5 µM
CC(C)[C@@H](Nc1ncnc2[nH]c(C3=CCOC3)cc12)c1ccc2c(c1)OCCO2 | 0.421 µM and 0.563 µM
CC(C)[C@@H](Nc1ncnc2[nH]c(-c3cc(-c4ccccc4)n[nH]3)cc12)c1ccc2c(c1)OCCO2 | > 99.5 µM
Cc1ccc(C(=O)Nc2ncnc3[nH]c(C)c(C)c23)cn1 | > 99.5 µM
CC(C)[C@@H](Nc1ncnc2[nH]ccc12)C(=O)O | 15.4 µM and 16.8 µM and 20.9 µM and 20.6 µM
CNC(=O)c1cc2c(N[C@@H](c3ccc4c(c3)S(=O)(=O)CCC4)C(C)C)ncnc2[nH]1 | 52 nM (2×) and 78 nM and 24 nM and 48 nM and 38 nM and 35 nM and 60 nM
CC(C)[C@@H](Nc1ncnc2[nH]ccc12)c1ccc(C(F)(F)F)cc1 | 46.2 µM and 37.2 µM
C[C@H]1C[C@H]1c1nnc(Nc2ccc([C@@H](CC(=O)O)NC(=O)c3c[nH]c4ncncc34)cc2)o1 | 85.2 µM and 97 µM
Cc1ccc2snc(C(=O)N(C)CC[C@@H](Nc3ncnc4[nH]ccc34)C(C)C)c2c1 | > 99.5 µM
Cn1ccc2c(C(=O)N[C@@H](CC(=O)O)c3ccc(Br)cc3)ccnc21 | 36.6 µM and 33.2 µM
CC(C)[C@@H](Nc1ncnc2[nH]c(-c3cnn(CC4(C#N)CC4)c3)cc12)c1ccc2c(c1)OCCO2 | 0.421 µM and 0.446 µM
CC(C)[C@@H](Nc1ncnc2[nH]c(C(=O)NC3CCN(C)CC3)cc12)c1ccc2c(c1)S(=O)(=O)CCC2 | 0.208 µM
CC(C)[C@@H]1C[C@@H](Nc2ncnc3[nH]ccc23)CCO1 | > 99.5 µM
CC(C)[C@@H](Nc1ncnc2[nH]ccc12)c1ccc2c(c1)C(=O)NCC2 | 2.25 µM and 2.44 µM
CC(C)[C@@H](Nc1ncnc2[nH]c(-c3cncn3C)cc12)c1ccc2c(c1)OCCO2 | 5.77 µM and 7.42 µM
CC(C)[C@@H](Nc1ccnc2[nH]ncc12)c1ccc2c(c1)S(=O)(=O)CCC2 | > 99.5 µM
COc1ccc([C@@H](Cc2nn[nH]n2)NC(=O)c2nc(C)nc3[nH]ccc23)cc1 | 1.84 µM and 1.65 µM
NC(=O)[C@@H](NC(=O)c1ncnc2[nH]ccc12)c1ccc(F)cc1 | > 99.5 µM

SMILES | IC50
CC(C)[C@@H](Nc1ncnc2[nH]c(-c3cnn(CCC(N)=O)c3)cc12)c1ccc2c(c1)OCCO2 | 0.274 µM and 0.319 µM
CC(C)[C@@H](Nc1ncnc2n[nH]cc12)c1cnn(C)c1 | 43.1 µM
Cn1nc(C(=O)N2CCC(c3ccn4ncc(C(=O)N5CCCCC5)c4c3)CC2)cc1C(=O)O | 66.4 µM
O=C(Nc1cccc2c(C(=O)Nc3cc4c(cc3C(=O)O)OCCO4)c[nH]c12)NC1CC1 | > 99.5 µM
NS(=O)(=O)C[C@@H](NC(=O)c1ncnc2[nH]ccc12)c1ccc(Br)cc1 | > 99.5 µM
Cc1nnc(N[C@@H](c2ccc3c(c2)OCCO3)C(C)C)c2ccccc12 | > 99.5 µM
CC(C)[C@H](Nc1ncncc1-n1nccn1)c1ccc2c(c1)S(=O)(=O)CCC2 | > 99.5 µM
CNC(=O)c1cc2c(N[C@@H](c3ccc4c(c3)NC(=O)CO4)C(C)C)ncnc2[nH]1 | 0.164 µM and 0.143 µM and 0.163 µM and 0.154 µM
CC(C)[C@@H](Nc1ncnc2[nH]c(C(=O)NCc3cnco3)cc12)c1ccc2c(c1)OCCO2 | 0.639 µM and 1.76 µM
CCNC(=O)c1cc2c(N[C@@H](c3cccnc3OCC(F)(F)F)C(C)C)ncnc2[nH]1 | > 99.5 µM
O=C(O)[C@H]1C[C@H](O)CN1c1ncnc2[nH]ccc12 | > 99.5 µM
CC(C)[C@H](Nc1ncnc2[nH]c(-c3cnn(C)c3)cc12)c1ccc2c(c1)S(=O)(=O)CCC2 | 9.14 µM
CC(C)[C@@H](Nc1ncnc2[nH]c(-c3cncc(OCCN(C)C)c3)cc12)c1ccc2c(c1)OCCO2 | 0.903 µM and 0.891 µM
Cc1nc2ccc(C(=O)N(C)CC[C@@H](Nc3ncnc4[nH]ccc34)C(C)C)cc2s1 | > 99.5 µM
Cc1nc2nc[nH]c(NC(=O)c3ccc(NC(=O)NC4CC4)nc3)c-2c1C | > 99.5 µM
NC(=O)c1ccc(S(=O)(=O)Nc2cnc3[nH]ccc3c2)cc1 | > 99.5 µM
CC(C)[C@@H](Nc1ncnc2[nH]c(C(=O)NCCn3cncn3)cc12)c1ccc2c(c1)OCCO2 | 1.78 µM
Cn1nc(C(=O)O)cc1C(=O)N1CCC(c2ccn3ncc(C(=O)N4CCCCC4)c3c2)CC1 | > 99.5 µM
O=C(O)C[C@@H](NC(=O)c1nccc2cc[nH]c12)c1ccc(Br)cc1 | 29.6 µM and 31.2 µM
c1nc(N[C@@H](c2ccc3c(c2)OCCO3)[C@@H]2CCN2)c2cc[nH]c2n1 | > 99.5 µM
CCNC(=O)c1cc2c(N[C@@H](c3ccc4c(c3)OCCO4)C(C)C)ncnc2[nH]1 | 0.28 µM and 0.305 µM and 0.287 µM and 0.614 µM
